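1) Cells in 96-well plates. 2) Compound, 48 h, 5 concentrations. 3) Linear interpolation between surrounding doses. 4) Unreached endpoint = highest concentration. At the GI50, growth is halved. TGI denotes the concentration required for complete inhibition of growth.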

Some test systems named below: A498 renal; CCRF-CEM leukemia; COLO 205 colon; HL-60(TB) leukemia; HT29 colon; KM12 colon; MOLT-4 leukemia; NCI-H226 lung; OVCAR-4 ovarian; SN12C renal.
Holding throughout (experiment): inhibition of tumour cell growth, NCI panel, 48 h

`CN(C)c1cc2c(Nc3ccc4c(cnn4Cc4ccccc4)c3)ncnc2cn1`: the GI50 was 16.7 µM in the assay on A498 renal; 10.3 µM in the assay with CCRF-CEM leukemia; 10.1 µM with COLO 205 colon; 8.93 µM in the assay on HL-60(TB) leukemia; 8.98 µM in the assay on HT29 colon; 7.29 µM in the assay on KM12 colon. The GI50 was 9.47 µM with MOLT-4 leukemia, 15.9 µM in the assay with NCI-H226 lung, 14.2 µM in the assay on OVCAR-4 ovarian and 12.1 µM with SN12C renal. The TGI in the assay with A498 renal is greater than 25 µM; with CCRF-CEM leukemia, greater than 25 µM; in the assay on COLO 205 colon, greater than 25 µM; with HL-60(TB) leukemia it was 23.8 µM; in the assay with HT29 colon it was greater than 25 µM; in the assay on KM12 colon, greater than 20 µM. Further, the TGI in the assay with MOLT-4 leukemia, in the assay with NCI-H226 lung, in the assay on OVCAR-4 ovarian and with SN12C renal was greater than 25 µM each time.

On to `O=C1C(Cl)=C(Nc2cc(Cl)ccc2O)C(=O)N1Cc1ccccc1`, for which the GI50 is 19.7 µM in the assay with A498 renal; 12.5 µM in the assay on CCRF-CEM leukemia; 18.3 µM with COLO 205 colon; 25.6 µM with HL-60(TB) leukemia; 16.4 µM with HT29 colon; 22 µM with KM12 colon. The GI50 in the assay on MOLT-4 leukemia is 29.7 µM; in the assay with NCI-H226 lung, 8.66 µM; in the assay with OVCAR-4 ovarian it was 17.2 µM; in the assay with SN12C renal it was 19.5 µM. Also, the TGI in the assay on A498 renal came out at 35.7 µM; in the assay with CCRF-CEM leukemia it was 54.9 µM; with COLO 205 colon it was 44.3 µM; in the assay on HL-60(TB) leukemia it was 67.1 µM; with HT29 colon, 59.9 µM; with KM12 colon it was 48.2 µM. In addition, the TGI with MOLT-4 leukemia was greater than 81.9 µM; in the assay on NCI-H226 lung, 21.9 µM; with OVCAR-4 ovarian, 38.1 µM; in the assay with SN12C renal it was 34.4 µM.

For the compound `N#CC(C(=N/O)/C(=N\O)C(C#N)c1ccccc1)c1ccccc1` (stereo unspecified), the TGI in the assay on A498 renal, with CCRF-CEM leukemia, in the assay on COLO 205 colon, with HL-60(TB) leukemia, in the assay on HT29 colon and in the assay with KM12 colon was greater than 100 µM each time. Besides, the TGI in the assay on MOLT-4 leukemia, in the assay with NCI-H226 lung, with OVCAR-4 ovarian and with SN12C renal was greater than 100 µM in each case.

Take `[Cl][Hg][c]1ccc2ccccc2c1`: the GI50 in the assay on A498 renal was 3.96 µM; in the assay with CCRF-CEM leukemia it was 0.924 µM; in the assay on COLO 205 colon, 2.3 µM; with HL-60(TB) leukemia it was 0.655 µM; in the assay on HT29 colon, 2.8 µM; with KM12 colon, 7.66 µM. The GI50 with MOLT-4 leukemia was 2.01 µM; in the assay with NCI-H226 lung, 14.2 µM; with OVCAR-4 ovarian it was 2.69 µM; in the assay with SN12C renal it was 1.76 µM. Further, the TGI with A498 renal was 12.4 µM; in the assay with CCRF-CEM leukemia it was 9.32 µM; with COLO 205 colon, 5.18 µM; in the assay with HL-60(TB) leukemia, 2.36 µM; in the assay on HT29 colon, 9.58 µM; with KM12 colon it was 22.6 µM. Besides, the TGI in the assay on MOLT-4 leukemia is 15.2 µM; in the assay on NCI-H226 lung it was 36.3 µM; in the assay with OVCAR-4 ovarian, 6.71 µM; with SN12C renal, 3.57 µM.

Regarding `C#CCOc1cccc(Nc2ncnc3cc(NC(=O)C=C)ccc23)c1`, the GI50 in the assay on A498 renal was 4.25 µM; with CCRF-CEM leukemia, 4.08 µM; in the assay on COLO 205 colon, 5.41 µM; in the assay on HL-60(TB) leukemia it was 3.84 µM; with HT29 colon, 3.66 µM; in the assay with KM12 colon, 10.4 µM. The GI50 in the assay on MOLT-4 leukemia was 4.56 µM; in the assay on NCI-H226 lung it was 29.7 µM; in the assay on OVCAR-4 ovarian, 29.6 µM; with SN12C renal it was 7.63 µM. Also, the TGI with A498 renal was 46.6 µM; in the assay on CCRF-CEM leukemia, greater than 100 µM; in the assay on COLO 205 colon, greater than 100 µM; in the assay with HL-60(TB) leukemia, 45.7 µM; with HT29 colon, greater than 100 µM; with KM12 colon, greater than 100 µM. In addition, the TGI was 69.1 µM with MOLT-4 leukemia, greater than 100 µM in the assay on NCI-H226 lung, greater than 100 µM in the assay on OVCAR-4 ovarian and greater than 100 µM in the assay with SN12C renal.

With `Cn1c2c(c3ccccc3c1=O)C(=O)c1ccccc1-2`, the TGI in the assay with A498 renal, in the assay on CCRF-CEM leukemia, with COLO 205 colon, in the assay with HL-60(TB) leukemia, in the assay with HT29 colon and in the assay with KM12 colon was greater than 100 µM in each case. The TGI in the assay with MOLT-4 leukemia, with NCI-H226 lung, in the assay on OVCAR-4 ovarian and in the assay with SN12C renal was greater than 100 µM in each case.

Take `CCCCCN(CCCCC)C(=O)[C@H](CCC(=O)O)NC(=O)c1cc2ccccc2[nH]1`: the TGI was greater than 100 µM with A498 renal; greater than 100 µM in the assay on CCRF-CEM leukemia; greater than 100 µM in the assay with COLO 205 colon; 61.8 µM with HL-60(TB) leukemia; greater than 100 µM in the assay on HT29 colon; greater than 100 µM in the assay with KM12 colon. Besides, the TGI with MOLT-4 leukemia was 64.4 µM; in the assay with NCI-H226 lung it was greater than 100 µM; in the assay with OVCAR-4 ovarian, greater than 100 µM; in the assay with SN12C renal, greater than 100 µM.

In the case of `CCCCSc1nc(N)c2cn[nH]c2n1`, the GI50 in the assay with A498 renal is 15.9 µM; in the assay on CCRF-CEM leukemia it was 23.6 µM; in the assay with COLO 205 colon, 19.8 µM; in the assay with HL-60(TB) leukemia, 23.6 µM; in the assay on HT29 colon, 25.5 µM; in the assay with KM12 colon, 15 µM. Further, the GI50 with MOLT-4 leukemia was 26.3 µM; with NCI-H226 lung it was 15.6 µM; in the assay with OVCAR-4 ovarian, 23.6 µM; in the assay with SN12C renal, 12.8 µM. The TGI in the assay with A498 renal is 31 µM; with CCRF-CEM leukemia, 68 µM; in the assay on COLO 205 colon, 48.8 µM; in the assay on HL-60(TB) leukemia it was greater than 100 µM; in the assay on HT29 colon, 62.6 µM; with KM12 colon it was 30.4 µM. Further, the TGI is greater than 78 µM in the assay with MOLT-4 leukemia, 36.6 µM with NCI-H226 lung, 70.4 µM in the assay on OVCAR-4 ovarian and 28.5 µM with SN12C renal.

As to `CC(=O)c1ccc2c3c1[C@H]1O[C@H]1c1cccc(c1-3)[C@@H]1O[C@H]21`, the GI50 in the assay on A498 renal was 2.74 µM. In addition, the TGI in the assay with A498 renal was found to be 7.36 µM; in the assay with CCRF-CEM leukemia, 4.2 µM; in the assay on COLO 205 colon it was 3.59 µM; in the assay with HL-60(TB) leukemia it was 5.75 µM; in the assay with HT29 colon, 7.81 µM; with KM12 colon it was 5.31 µM. Also, the TGI was greater than 32.6 µM in the assay with MOLT-4 leukemia, greater than 88.3 µM in the assay on NCI-H226 lung, 3.59 µM in the assay with OVCAR-4 ovarian and 3.86 µM in the assay on SN12C renal.

Values taken from PubChem BioAssay (NCI).
